Experimental data as given in patent US11013780B2, “Methods of treating female infertility” (Myovant Sciences GmbH, priority 2016, dated 2021).
Like-named read-outs stand apart in the source and are kept apart here. Where a SMILES comes first, the peptide text is derived from it. [ ]: non-standard residue; d: D form. Arg(Me) = CNC(=N)NCCC[C@H](N)C(=O)O; Hyp = O=C(O)[C@@H]1C[C@@H](O)CN1; azaGly = NNC(=O)O

Assays:
[1] = Multiple-dose PK, 2-hour SC infusion once daily for 14 days, Japanese prostate cancer patients; assay type: in vivo, human; conditions: male, human, in vivo, sc; for dose excreted: Mean percent cumulative urinary excretion at 24 hours postdose
Protocol: It was an open-label, ascending dose study of API-MA administered via 2-hour SC infusion once daily for 14 days that was expected to suppress testosterone in Japanese hormone-naïve prostate cancer patients. Six patients received API-MA at doses of 0.5 mg (3 patients) and 1.0 mg (3 patients) a day for 14 days.
To measure plasma concentrations of API-MA, blood specimens were collected at the following times: Day 1 (predose and 2, 4, 6, 10 hours postdose); days 2, 4, 6, 8, 10, and 12 (predose); day 14 (predose and 2, 4, 6, 10, 24, 48 hours postdose); day 21; and day 28. To measure urinary excretion of API-MA, urine specimens were collected at the following times: Day 1 (predose and 0 to 4, 4 to 8, 8 to 12, 12 to 24 hours postdose) and day 14 (0 to 4, 4 to 8, 8 to 12, 12 to 24 hours postdose).

[2] = Pharmacokinetics in monkeys after SC and IV administration; conditions: monkey, in vivo
Text: The PK of API-MA was studied in monkeys after SC and IV administration.

[3] = Pharmacokinetics in dogs after SC and IV administration; conditions: dog, in vivo
Text: The PK of API-MA was studied in dogs after SC and IV administration.

[4] = Pharmacokinetics in rats after SC and IV administration; conditions: rat, in vivo
Protocol: The PK of API-MA was studied in rats after SC and IV administration.
The PK linearity of API-MA was also investigated in rats after IV administration. The plasma C5min and AUC(0-24) values increased dose-proportionally. […] The elimination T1/2 values were 0.4 hours at 0.01 and 0.1 mg/kg and 0.5 hours at 1 mg/kg. These findings indicate that the PK of API-FB was linear in rats after single IV administration over the dose range of 0.01 to 1 mg/kg. The greater than dose-proportional increase in the first-pass kinetics with SC administration would indicate nonlinear PK in rats after SC administration.

[5] = dog, in vivo; cited from earlier work
[6] = iv, 1 mg/kg, T½ γ (elimination)

## CNC(=N)NCCC[C@H](NC(=O)[C@H](CC(C)C)NC(=O)NNC(=O)[C@H](Cc1ccccc1)NC(=O)[C@@H](NC(=O)[C@H](CC(N)=O)NC(=O)[C@@H]1C[C@@H](O)CN1C(=O)[C@@H](Cc1ccc(O)cc1)NC(C)=O)[C@@H](C)O)C(=O)N[C@@H](Cc1c[nH]c2ccccc12)C(N)=O [Compound 1, 2-(N-Acetyl-D-tyrosyl-trans-4-hydroxy-L-prolyl-L-asparaginyl-L-threonyl-L-phenylalanyl)-hydrazinocarbonyl-L-leucyl-Nω-methyl-L-arginyl-L-tryptophanamide] (Ac-[dY][Hyp]NTF[azaGly]L[Arg(Me)]W-NH2)
[1]; 0.5 mg/day
  Mean percent cumulative urinary excretion at 24 hours postdose: 8.99%
  dose excreted: 6.5%
[1]; 1 mg/day
  Mean percent cumulative urinary excretion at 24 hours postdose: 9.41%
  dose excreted: 8.86%
[2]; iv, 1 mg/kg
  AUC(0-t): 3160 ± 594 ng·h/mL
  Cmax at 5 min: 5030 ± 787 ng/mL
[2]; iv, 1 mg/kg, T½ α
  half-life: 0.3 h
[2]; iv, 1 mg/kg, T½ β
  half-life: 1.2 ± 0.1 h
[2]; [6]
  half-life: 3.2 ± 0.1 h
[2]; sc, 0.1 mg/kg
  AUC(0-t): 295 ± 27 ng·h/mL
  Cmax: 123 ± 27.3 ng/mL
  Tmax: 0.4 ± 0.1 h
  bioavailability: 94.9 ± 12.4%
[2]; sc, 0.1 mg/kg, T½ β
  half-life: 1.6 ± 0.3 h
[2]; sc, 1 mg/kg
  AUC(0-t): 2790 ± 262 ng·h/mL
  Cmax: 1320 ± 316 ng/mL
  Tmax: 0.3 h
  bioavailability: 90.1 ± 15.4%
[2]; sc, 1 mg/kg, T½ β
  half-life: 1.4 ± 0.2 h
[2]; sc, 1 mg/kg, T½ γ
  half-life: 2.5 ± 0.2 h
[2]; sc, 10 mg/kg
  AUC(0-t): 31600 ng·h/mL
  Cmax: 12100 ng/mL
  Tmax: 0.4 ± 0.1 h
  bioavailability: 102 ± 14.3%
[2]; sc, 10 mg/kg, T½ β
  half-life: 1.5 ± 0.3 h
[2]; sc, 10 mg/kg, T½ γ
  half-life: 2.6 ± 0.3 h
[3]; iv, 1 mg/kg
  AUC(0-t): 3090 ± 80 ng·h/mL
  Cmax at 5 min: 4250 ± 543 ng/mL
[3]; iv, 1 mg/kg, T½ α
  half-life: 0.2 h
[3]; iv, 1 mg/kg, T½ β
  half-life: 1.1 h
[3]; [6]
  half-life: 3 ± 0.1 h
[3]; sc, 0.1 mg/kg
  AUC(0-t): 252 ± 34 ng·h/mL
  Cmax: 86.6 ± 19 ng/mL
  Tmax: 0.8 ± 0.3 h
  bioavailability: 81.5 ± 11.5%
[3]; sc, 0.1 mg/kg, T½ β
  half-life: 1.4 ± 0.2 h
[3]; sc, 1 mg/kg
  AUC(0-t): 2600 ± 219 ng·h/mL
  Cmax: 883 ± 251 ng/mL
  Tmax: 0.8 ± 0.3 h
  bioavailability: 84 ± 8.1%
[3]; sc, 1 mg/kg, T½ β
  half-life: 1.4 ± 0.3 h
[3]; sc, 1 mg/kg, T½ γ
  half-life: 2.6 ± 0.2 h
[3]; sc, 10 mg/kg
  AUC(0-t): 28600 ng·h/mL
  Cmax: 8840 ± 1200 ng/mL
  Tmax: 1 h
  bioavailability: 92.7 ± 7.7%
[3]; sc, 10 mg/kg, T½ β
  half-life: 1.5 ± 0.4 h
[3]; sc, 10 mg/kg, T½ γ
  half-life: 2.6 ± 0.1 h
[4]; iv, 1 mg/kg
  AUC(0-t): 1460 ± 143 ng·h/mL
  Cmax at 5 min: 2670 ± 234 ng/mL
[4]; sc, 0.1 mg/kg
  AUC(0-t): 123 ± 9 ng·h/mL
  Cmax: 90 ± 12.5 ng/mL
  Tmax: 0.5 h
[4]; sc, 1 mg/kg
  AUC(0-t): 804 ± 133 ng·h/mL
  Cmax: 381 ± 75.5 ng/mL
  Tmax: 0.9 ± 0.2 h
  bioavailability: 55.3 ± 8.6%
[4]; sc, 10 mg/kg
  AUC(0-t): 309 ± 70 ng·h/mL
  Cmax: 285 ± 58.6 ng/mL
  Tmax: 0.3 h
[5]
  bioavailability: 92.4%
